The target of one data set is T1, CD20 (Homo sapiens, UniProt P11836).
T1 sequence (P11836 1-297): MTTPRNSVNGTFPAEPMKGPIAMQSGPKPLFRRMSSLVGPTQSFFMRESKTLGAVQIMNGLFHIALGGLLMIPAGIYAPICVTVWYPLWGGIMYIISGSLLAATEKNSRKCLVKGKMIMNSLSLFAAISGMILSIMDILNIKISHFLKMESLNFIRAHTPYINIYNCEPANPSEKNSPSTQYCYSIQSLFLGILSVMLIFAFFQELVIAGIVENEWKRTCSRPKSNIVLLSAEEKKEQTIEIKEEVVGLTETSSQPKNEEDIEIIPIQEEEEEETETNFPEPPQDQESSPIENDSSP
As to conditions: bind to a different epitope; cited from earlier work.

The subject of data set [1] is primary DLBCL and follicular lymphoma patient biopsies. As to conditions: cited from earlier work.
Data set [2] has as its system relapsed/refractory (R/R) B-NHL. Description: epcoritamab monotherapy clinical trial (NCT03625037). Format: in vivo. From the text: Epcoritamab as monotherapy is currently in a clinical trial for the treatment of relapsed/refractory (R/R) B-NHL (ClinicalTrials.gov Identifier: NCT03625037).
For data set [3], the system named is CD20-expressing Raji-luc tumor cells. As to conditions: even in the presence of an excess of IgG1-RTX-FEAR; Engelberts et al. 2020; cited from earlier work.
For another data set, the system named is T cells. The experiment in a line: T cell viability after pre-incubation with CHOP components. Format: cell-based.
For data set [4], the system named is previously untreated, high-risk (IPI or R-IPI≥3) DLBCL. The experiment in a line: Phase 1b open-label trial of epcoritamab in combination with R-CHOP. Format: in vivo, human. As to conditions: as of Sep. 8, 2021; CRS under epcoritamab + R-CHOP. Here is the method:
Epcoritamab is initially be administered in combination with R-CHOP in a 3-subject cohort. DLTs are evaluated during the first 28 days.
Cyclophosphamide (750 mg/m^2) is administered intravenously on day 1 once every three weeks (Q3 W) of cycles 1-6 or 1-8. Doxorubicin (50 mg/m^2) is administered intravenously on day 1 once every three weeks (Q3 W) of cycles 1-6 or 1-8. Vincristine (1.4 mg/m^2, with a recommended cap of 2 mg) is administered intravenously on day 1 once every three weeks (Q3 W) of cycles 1-6 or 1-8. Prednisone (100 mg/day) is administered intravenously or orally on five consecutive days (days 1-5) every three weeks (Q3 W) of cycles 1-6 or 1-8.
MRD negativity rate, is defined as the proportion of subjects with at least 1 undetectable MRD result according to the specific threshold, prior to initiation of subsequent therapy.

Where [5] appears, read: T cells pre-incubated 16 hours, data not shown.

Where two headings read alike, the source gives them in different places.

For the compound “IgG1-CD20: anti-CD20 antibody of which the CD20 arm of epcoritamab is derived”, in the data set with CD20, the “competition for CD20 binding” value was “compete for CD20 binding”.
For the compound “epcoritamab: IgG1 bispecific CD3xCD20 antibody; heavy and light chain pairs SEQ ID NOs: 24/25 (CD3ε arm) and 26/27 (CD20 arm); CAS 2134641-34-0”, in data set [1] (biopsies taken a certain amount of time after anti-CD20 antibody, Van der Horst et al. 2019), the T-cell-mediated cytotoxicity result is reported as “induced T-cell-mediated cytotoxicity”. In addition, the tumor cell kill result in data set [1] (biopsy taken 2 weeks after administering anti-CD20 antibody) is listed as “up to 40%”. Besides, the tolerated dose entry in data set [2] (human, in vivo) is “at least 48 mg”. Moreover, the dose-limiting toxicities entry in data set [2] (monotherapy, R/R B-NHL patients, preliminary data) is given as “no dose-limiting toxicities reported”. Also, in data set [3], the tumor growth entry was “effectively reduce tumor growth”.
As for `O=P1(N(CCCl)CCCl)NCCCO1` (centres unmarked) [cyclophosphamide, 2H-1,3,2-Oxazaphosphorin-2-amine, N,N-bis(2-chloroethyl)tetrahydro-, 2-oxide], in the data set on T cells, the “T cell viability after pretreatment” value is recorded as “did not impact T cell viability”.
On to `C[C@]12C=CC(=O)C=C1CC[C@@H]1[C@@H]2C(=O)C[C@@]2(C)[C@H]1CC[C@]2(O)C(=O)CO` [prednisone, 17,21-dihydroxypregna-1,4-diene-3,11,20-trione], for which the “T cell viability after pretreatment” value in the data set with T cells (setting [5]) was “did not impact T cell viability”.
For the compound `CC[C@]1(O)C[C@H]2CN(CCc3c([nH]c4ccccc34)[C@@](C(=O)OC)(c3cc4c(cc3OC)N(C=O)[C@H]3[C@@](O)(C(=O)OC)[C@H](OC(C)=O)[C@]5(CC)C=CCN6CC[C@]43[C@@H]65)C2)C1` [vincristine], the “T cell viability after pretreatment” value in the data set on T cells (setting [5]) is “did not impact T cell viability”.
For “tocilizumab: a humanized antibody against IL-6 receptor, commercially available as, e.g., ACTEMRA”, in data set [4], the “outcome of the Grade 3 CRS episode after treatment” value is recorded as “recovered”.
On to `COc1cccc2c1C(=O)c1c(O)c3c(c(O)c1C2=O)C[C@@](O)(C(=O)CO)C[C@@H]3O[C@H]1C[C@H](N)[C@H](O)[C@H](C)O1` [doxorubicin], for which the “T cell viability after pretreatment” value in the data set on T cells (setting [5]) is reported as “led to a reduction in T cell viability”.

(Values after US20240034812A1, “BISPECIFIC ANTIBODY AGAINST CD3 AND CD20 IN COMBINATION THERAPY FOR TREATING DIFFUSE LARGE B-CELL LYMPHOMA” (GENMAB A/S, priority 2020, published 2024).)
